Experimental data as given in PubChem BioAssay AID328 (DTP/NCI, 2004).
“And” between values parts separate entries of the source, which are not always exact repeats. Equal values may be shown once. Inconclusive results and toxic doses are left out.

Test system: BDF1 mice, P388 leukemia ip, median survival T/C
Assay: NCI In Vivo Anticancer Drug Screen. Data for tumor model P388 Leukemia (intraperitoneal) in B6D2F1 (BDF1) mice
Details: endpoint: median survival time, higher = longer survival
How it was run: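 Each value expresses how treatment altered survival: treated-mouse outcome over vehicle-mouse outcome, both groups bearing the transplanted tumour.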

[1] = dose: 12.5 mg/kg/injection, schedule: Q01DX009 (ip), vehicle: saline
[2] = dose: 25.0 mg/kg/injection, schedule: Q01DX009 (ip), vehicle: saline
[3] = dose: 50.0 mg/kg/injection, schedule: Q01DX009 (ip), vehicle: saline
[4] = dose: 50.0 mg/kg/injection, schedule: Q01DX009 (ip), vehicle: saline with Tween-80
[5] = dose: 100.0 mg/kg/injection, schedule: Q01DX009 (ip), vehicle: saline with Tween-80
[6] = dose: 200.0 mg/kg/injection, schedule: Q01DX009 (ip), vehicle: saline with Tween-80
[7] = dose: 50.0 mg/kg/injection, schedule: Q04DX003 (ip), vehicle: Klucel (hydroxypropylcellulose) (HPC)
[8] = dose: 100.0 mg/kg/injection, schedule: Q04DX003 (ip), vehicle: Klucel (hydroxypropylcellulose) (HPC)
[9] = dose: 200.0 mg/kg/injection, schedule: Q04DX003 (ip), vehicle: Klucel (hydroxypropylcellulose) (HPC)
[10] = dose: 12.5 mg/kg/injection, schedule: Q01DX009 (ip), vehicle: water
[11] = dose: 25.0 mg/kg/injection, schedule: Q01DX009 (ip), vehicle: water
[12] = dose: 100.0 mg/kg/injection, schedule: Q04DX003 (ip), vehicle: saline
[13] = dose: 200.0 mg/kg/injection, schedule: Q04DX003 (ip), vehicle: saline with Tween-80
[14] = dose: 400.0 mg/kg/injection, schedule: Q04DX003 (ip), vehicle: saline with Tween-80

CCN(CCNc1ccc(C)c2sc3cc(Cl)ccc3c(=O)c12)CC(C)O (centres undefined)
T/C (dose: 100.0 mg/kg/injection, schedule: Q01DX009 (ip), vehicle: saline): 109 % of control | T/C (dose: 200.0 mg/kg/injection, schedule: Q01DX009 (ip), vehicle: saline): 104 % of control

CCC(=O)OCC(=O)[C@]1(O)Cc2c(O)c3c(c(O)c2[C@@H](OC2CC(N)C(O)C(C)O2)C1)C(=O)c1c(OC)cccc1C3=O (some centres undefined)
T/C (dose: 0.12 mg/kg/injection, schedule: Q01DX009 (ip), vehicle: saline): 170 % of control | T/C (dose: 0.25 mg/kg/injection, schedule: Q01DX009 (ip), vehicle: saline): 201 % of control | T/C (dose: 0.5 mg/kg/injection, schedule: Q01DX009 (ip), vehicle: saline): 219 % of control | T/C (dose: 1.0 mg/kg/injection, schedule: Q01DX009 (ip), vehicle: saline): 186 % of control | T/C (dose: 2.0 mg/kg/injection, schedule: Q01DX009 (ip), vehicle: saline): 241 % of control | T/C (dose: 7.5 micrograms/kg/injection, schedule: Q01DX009 (ip), vehicle: saline): 102 % of control | T/C (dose: 15.0 micrograms/kg/injection, schedule: Q01DX009 (ip), vehicle: saline): 107 % of control | T/C (dose: 30.0 micrograms/kg/injection, schedule: Q01DX009 (ip), vehicle: saline): 118 % of control | T/C (dose: 60.0 micrograms/kg/injection, schedule: Q01DX009 (ip), vehicle: saline): 170 % of control

NN(c1cccc(C(F)(F)F)c1)c1ccccn1
T/C [1]: 108 % of control | T/C [2]: 106 % of control | T/C [3]: 115 % of control

CC(=O)c1cc(C)ccc1Sc1ccc(C)cc1
T/C [4]: 104 % of control | T/C [5]: 101 % of control | T/C [6]: 95 % of control

CCOC(=O)C1C(=O)C2CCc3c(ccc4ccccc34)N2C1=O (centres undefined)
T/C (dose: 50.0 mg/kg/injection, schedule: Q01DX009 (ip), vehicle: Klucel (hydroxypropylcellulose) (HPC)): 100 % of control | T/C [7]: 95 % of control | T/C (dose: 100.0 mg/kg/injection, schedule: Q01DX009 (ip), vehicle: Klucel (hydroxypropylcellulose) (HPC)): 110 % of control | T/C [8]: 95 % of control | T/C (dose: 200.0 mg/kg/injection, schedule: Q01DX009 (ip), vehicle: Klucel (hydroxypropylcellulose) (HPC)): 100 % of control | T/C [9]: 100 % of control

COc1cccc2c1C(=O)c1c(O)c3c(c(O)c1C2=O)C[C@@](O)(C(C)=O)C[C@@H]3OC1CC(NC(C)=O)C(O)C(C)O1 (some centres undefined)
T/C (dose: 0.73 mg/kg/injection, schedule: Q01DX009 (ip), vehicle: saline): 112 % of control | T/C (dose: 1.1 mg/kg/injection, schedule: Q01DX009 (ip), vehicle: saline): 175 % of control | T/C (dose: 1.25 mg/kg/injection, schedule: Q04DX003 (ip), vehicle: saline): 109 % of control | T/C (dose: 1.65 mg/kg/injection, schedule: Q01DX009 (ip), vehicle: saline): 183 % of control | T/C (dose: 2.5 mg/kg/injection, schedule: Q01DX009 (ip), vehicle: saline): 187 % of control | T/C (dose: 10.0 mg/kg/injection, schedule: Q04DX003 (ip), vehicle: saline): 172 % of control | T/C [1]: 240 % of control and 191 % of control | T/C [10]: 169 % of control | T/C [2]: 150 % of control | T/C [11]: 192 % of control | T/C (dose: 44.0 mg/kg/injection, schedule: Q04DX003 (ip), vehicle: saline sonified): 180 % of control | T/C (dose: 44.0 mg/kg/injection, schedule: Q04DX003 (ip), vehicle: saline): 159 % of control | T/C [3]: 227 % of control | T/C (dose: 50.0 mg/kg/injection, schedule: Q01DX009 (ip), vehicle: water): 204 % of control | T/C (dose: 66.0 mg/kg/injection, schedule: Q04DX003 (ip), vehicle: saline sonified): 175 % of control | T/C (dose: 66.0 mg/kg/injection, schedule: Q04DX003 (ip), vehicle: saline): 181 % of control | T/C (dose: 100.0 mg/kg/injection, schedule: Q01DX009 (ip), vehicle: water): 114 % of control | T/C (dose: 100.0 mg/kg/injection, schedule: Q04DX003 (ip), vehicle: saline sonified): 205 % of control | T/C [12]: 195 % of control | T/C (dose: 150.0 mg/kg/injection, schedule: Q04DX003 (ip), vehicle: saline sonified): 180 % of control | T/C (dose: 150.0 mg/kg/injection, schedule: Q04DX003 (ip), vehicle: saline): 168 % of control

O=C1OC(c2ccccc2)=N/C1=C\c1cccc(Br)c1
T/C (dose: 50.0 mg/kg/injection, schedule: Q04DX002 (ip), vehicle: saline with Tween-80): 99 % of control | T/C (dose: 100.0 mg/kg/injection, schedule: Q04DX002 (ip), vehicle: saline with Tween-80): 105 % of control | T/C (dose: 200.0 mg/kg/injection, schedule: Q04DX002 (ip), vehicle: saline with Tween-80): 89 % of control

N#CC1(c2ccc(Cl)cc2)CCC1
T/C [5]: 112 % of control | T/C [6]: 108 % of control

CN1CCC(=C(C#N)C#N)CC1
T/C (dose: 25.0 mg/kg/injection, schedule: Q04DX003 (ip), vehicle: saline): 95 % of control | T/C (dose: 50.0 mg/kg/injection, schedule: Q04DX003 (ip), vehicle: saline): 100 % of control | T/C [12]: 100 % of control

CN(C)c1ccc(C(C#N)(c2ccc(N(C)C)cc2)c2ccc(N(C)C)cc2)cc1
T/C [7]: 100 % of control | T/C [8]: 100 % of control | T/C [9]: 95 % of control

COc1ccc(OCC(O)CN2CCN(c3ccc(Cl)cc3)CC2)cc1 (centres undefined)
T/C (dose: 6.25 mg/kg/injection, schedule: Q01DX009 (ip), vehicle: Klucel (hydroxypropylcellulose) (HPC)): 100 % of control | T/C (dose: 12.5 mg/kg/injection, schedule: Q01DX009 (ip), vehicle: Klucel (hydroxypropylcellulose) (HPC)): 95 % of control | T/C (dose: 25.0 mg/kg/injection, schedule: Q01DX009 (ip), vehicle: Klucel (hydroxypropylcellulose) (HPC)): 86 % of control

NC(N)=N/N=C(/c1ccccc1)c1ccc(F)cc1
T/C (dose: 1.2 mg/kg/injection, schedule: Q01DX009 (ip), vehicle: Klucel (hydroxypropylcellulose) (HPC)): 115 % of control | T/C (dose: 5.0 mg/kg/injection, schedule: Q01DX009 (ip), vehicle: Klucel (hydroxypropylcellulose) (HPC)): 104 % of control and 105 % of control | T/C (dose: 5.0 mg/kg/injection, schedule: Q01DX009 (ip), vehicle: saline): 95 % of control | T/C (dose: 10.0 mg/kg/injection, schedule: Q01DX009 (ip), vehicle: Klucel (hydroxypropylcellulose) (HPC)): 100 % of control and 109 % of control | T/C (dose: 10.0 mg/kg/injection, schedule: Q01DX009 (ip), vehicle: saline): 100 % of control | T/C (dose: 20.0 mg/kg/injection, schedule: Q01DX009 (ip), vehicle: saline): 112 % of control

OC(CC1CCCCN1)c1cc2c(Cl)cc(Cl)cc2c2cc(C(F)(F)F)ccc12 (centres undefined)
T/C [4]: 114 % of control

ClCCn1cnc2c(SCc3ccccc3)ncnc21
T/C (dose: 100.0 mg/kg/injection, schedule: Q04DX003 (ip), vehicle: saline with Tween-80): 100 % of control | T/C [13]: 100 % of control | T/C [14]: 100 % of control

Cc1cc(C)c(CCc2cc(C)c(C)cc2C)cc1C
T/C [7]: 95 % of control | T/C [8]: 91 % of control | T/C [9]: 87 % of control and 108 % of control

COc1cc(OC)cc(C(N)=O)c1
T/C [7]: 100 % of control | T/C [8]: 95 % of control | T/C [9]: 100 % of control

C=C/C=C\N(CC)CC
T/C (dose: 0.78 mg/kg/injection, schedule: Q01DX009 (ip), vehicle: water): 110 % of control | T/C (dose: 1.56 mg/kg/injection, schedule: Q01DX009 (ip), vehicle: water): 109 % of control and 112 % of control | T/C (dose: 3.12 mg/kg/injection, schedule: Q01DX009 (ip), vehicle: water): 107 % of control and 121 % of control | T/C (dose: 6.25 mg/kg/injection, schedule: Q01DX009 (ip), vehicle: water): 89 % of control and 100 % of control and 102 % of control | T/C [10]: 102 % of control and 123 % of control | T/C [11]: 89 % of control and 116 % of control and 118 % of control

CCCCCCCCCC(=O)NC(CN1CCOCC1)C(=O)c1ccccc1 (centres undefined)
T/C (dose: 12.5 mg/kg/injection, schedule: Q04DX003 (ip), vehicle: saline with Tween-80): 95 % of control | T/C (dose: 25.0 mg/kg/injection, schedule: Q04DX003 (ip), vehicle: saline with Tween-80): 98 % of control | T/C (dose: 50.0 mg/kg/injection, schedule: Q04DX003 (ip), vehicle: saline with Tween-80): 100 % of control

CNc1ccc([N+](=O)[O-])cc1C(=O)OC
T/C [5]: 104 % of control | T/C [6]: 96 % of control

Clc1ccc2c(c1)C(Br)c1cc(Cl)cc(Cl)c1-2 (centres undefined)
T/C [5]: 108 % of control | T/C [6]: 87 % of control | T/C [13]: 87 % of control | T/C [14]: 87 % of control
